In patent US8962691B2, “Retinoid replacements and opsin agonists and methods for the use thereof” (University of Washington, priority 2003, dated 2015):

Assays:
Rpe65−/− mice [1] = test: Mouse flicker electroretinograms; format: in vivo
Protocol: Mice were dark-reared from birth and anesthetized (ketaject/xylaject, 65 mg/kg intraperitoneally), and the pupils were dilated with tropicamide (1%). […] The mice were placed in a Ganzfield chamber, and flicker recordings were obtained from one eye.

rods from Rpe65−/− mice = test: Single cell recordings of isolated rods; format: in vivo, mouse
Protocol: Mice were dark-reared from birth and sacrificed via cervical dislocation, and the eyes were removed. The retina was isolated and stored on ice for up to 12 hours in HEPES-buffered Ames' solution (10 mM HEPES, pH adjusted to 7.4 with NaOH). Isolated rods were obtained by shredding a small piece of retina (roughly 1 mm^2) with fine needles in a 160-μl drop of solution. The drop was then injected into a recording chamber mounted on the stage of an inverted microscope (Nikon Eclipse) equipped with an infrared video viewing system and continuously superfused at 2-3 ml/minute with bicarbonate-buffered Ames' solution warmed to 37° C. (pH 7.4 when equilibrated with 5% CO2, 95% O2). The entire dissection was carried out under infrared illumination using a dissecting microscope equipped with infrared-visible image converters.
An isolated rod was drawn by suction into a heat-polished, silanized borosilicate electrode with an opening 1.2-1.5 μm in diameter. The electrode was filled with HEPES-buffered Ames' solution. The electrical connections to the bath and suction electrode were made by NaCl-filled agar bridges that contacted calomel half-cells. Bath voltage was held at ground by an active clamp circuit (Baylor et al. J. Physiol. 354:203-23 (1984)). Membrane current collected by the suction electrode was amplified by an Axopatch 200A patch clamp amplifier (Axon Instruments, Foster City, Calif.), filtered at 30 Hz (3 dB point) with an 8-pole Bessel low pass filter, and digitized at 1 kHz.
Light from light-emitting diodes with peak outputs at 470, 570, and 640 nm were combined using a trifurcated fiber optic and focused on the preparation using a water immersion lens in place of the microscope condensor. The light stimulus was spatially uniform and illuminated a circular area 0.57 mm in diameter centered on the recorded cell. Light intensities were measured at the preparation and converted to equivalent 500-nm photons (max for rod sensitivity) using the absorption spectrum of rhodopsin and the measured light-emitting diode spectrum.

Rpe65−/− mice [2] = test: Light and electron microscopy of RPE-ROS interface; format: in vivo, mouse
Protocol: Eye cups were prepared by removing the anterior segment and vitreous. […] “Thin” sections (1.0 μm) were stained with Richardson's blue solution (1%) and subjected to light microscopy. “Ultrathin” sections (0.05 μm) were stained with uranyl acetate/lead citrate and subjected to electron microscopy.

Rpe65−/− mice [3] = details: mouse, in vivo
Protocol: Mice were anesthetized by intraperitoneal injection with 15 μl/g body weight of 6 mg/ml ketamine and 0.44 mg/ml xylazine diluted with 10 mM phosphate buffer, pH 7.2, containing 100 mM NaCl. The pupils were dilated with 1% tropicamide. A contact lens electrode was placed on the eye with a drop of methylcellulose, and a ground electrode (a reference electrode) was placed in the ear. ERGs were recorded with the universal testing and electrophysiologic system 3000 (UTAS E-3000) (LKC Technologies, Inc.). The mice were placed in a Ganzfield chamber, and responses to flash stimuli were obtained from both eyes simultaneously. […] Two to four recordings were made with >10-second intervals. Typically, 4-8 animals were used for recording of each point in all conditions. All ERG measurements were done within 10-40 minutes after anesthesia.

Rpe65−/− mice [4] = test: Analyses of retinoids and visual pigments in eyes of Rpe65−/− mice given 9-cis-retinal; format: in vivo, mouse
Protocol: All of the procedures were performed under dim red light as described previously (Van Hooser et al., Proc. Natl. Acad. Sci. USA 97:8623-28 (2000); Jang et al., J. Biol. Chem. 276:32456-65 (2001); Palczewski et al., Biochemistry 38:12012-19 (1999)). In addition to previously described methods, retinoid analysis was performed on an HP 1100 series high pressure liquid chromatograph (HPLC) equipped with a diode array detector and HP Chemstation A.07.01 software, allowing identification of retinoid isomers according to their specific retention time and absorption maxima. A normal phase column (Beckman Ultrasphere Si 5μ, 4.6×250 mm) and an isocratic solvent system of 0.5% ethyl acetate in hexane (v/v) for 15 minutes followed by 4% ethyl acetate in hexane for 60 minutes at a flow rate of 1.4 ml/minute at 20° C. (total 75 min) with detection at 325 nm allowed the separation of 11-cis-, 13-cis-, and all-trans-retinyl esters. In addition, all of the study procedures related to the analysis of dissected mouse eyes, derivatization, and separation of retinoids have been described previously in detail (Van Hooser et al., Proc. Natl. Acad. Sci. USA 97:8623-28 (2000)). Rhodopsin and iso-rhodopsin measurements were performed as described previously (Palczewski et al., Biochemistry 38:12012-19 (1999)). Typically, two mouse eyes were used per assay, and the assays were repeated three to six times. The data are presented with S.E.M.
(§1) Oral gavage was carried out as described previously (Van Hooser et al., Proc. Natl. Acad. Sci. USA 97:8623-28 (2000)).
(§2) The chemicals were purchased from Sigma/Aldrich unless otherwise specified. Solution A contained 10 mg of 9-cis-retinal, 75 mg of Cremophor EL, 1 mg of α-tocopherol, and 0.6 mg of benzoic acid suspended in 1 ml of lactated Ringer's solution (Baxter). The mixture was vortexed for 10 minutes and centrifuged for 10 minutes at 20,000×g, and the concentration of 9-cis-retinal (7.7 mM) was determined spectrophotometrically. Solution B contained 13 mg of 9-cis-retinal, 50 mg of Cremophor EL, 10 mg of dipalmitoylphosphatidyl choline, and 40 mg of 2-hydroxypropyl-β-cyclodextrin suspended in 1 ml of lactated Ringer's solution (Baxter). The mixture was vortexed for 10 minutes and centrifuged for 10 minutes at 20,000×g, and the concentration of 9-cis-retinal (10 mM) was determined spectrophotometrically. Solutions A and B (typically, 100 μl) were delivered to the mouse lateral tail vein employing a 1-ml syringe equipped with a 27-gauge needle and a restraint tube.

[5] = Retinal in blood circulation after intravenous injection or gavage; format: in vivo, mouse; details: for t1/2 in the circulation: intravenous injection
Protocol: as §1, §2

## CC1=C(/C=C/C(C)=C\C=C\C(C)=C\C=O)C(C)(C)CCC1 [9-cis-retinal]
Rpe65−/− mice [1]; early intervention, Rpe65−/− mice
  time rod retinal function is supported post-treatment: more than 6 months
Rpe65−/− mice [1]; eight weeks after single 2.5 mg
  gain in ERG sensitivity over untreated mice: 2.1 logarithmic units
Rpe65−/− mice [1]; eight weeks after single 2.5 mg, at 0.059 cd·s/m^2
  flicker ERG peak amplitude: 137.3±24.4 μV
Rpe65−/− mice [1]; eight weeks after single 2.5 mg, at 13 cd·s/m^2
  flicker ERG peak amplitude: 40.0±7.1 μV
Rpe65−/− mice [1]; treated once at PND 30
  persistence of partial recovery of ERG sensitivity: more than 12 weeks
Rods from Rpe65−/− mice; 0.25 mg
  factor of increase of half-saturating flash intensity over Rpe65+/+ rods: 131
  further desensitization of rods: 6.8 fold
  light-sensitive dark current of rods: 3.6±0.9 pA
Rods from Rpe65−/− mice; 1.25 mg
  factor of increase of half-saturating flash intensity over Rpe65+/+ rods: 66
  further desensitization of rods: 4.5 fold
Rods from Rpe65−/− mice; 2.5 mg
  dim flash response kinetics vs Rpe65+/+: essentially the same kinetics
  factor of increase of half-saturating flash intensity over Rpe65+/+ rods: 6
  increase in half-saturating flash strength compared with rods of Rpe65+/+: 6 fold
  rod dark current: essentially the same as Rpe65+/+
Rods from Rpe65−/− mice; 1.25 or 0.25 mg
  dim flash response time-to-peak and recovery times: substantially faster than those of Rpe65+/+
Rods from Rpe65−/− mice; Rpe65−/− mice treated with 0.25 mg of 9-cis-retinal
  half-saturating flash intensity I0: 3929 equivalent 500 nm photons/μm^2
Rods from Rpe65−/− mice; Rpe65−/− mice treated with 1.25 mg of 9-cis-retinal
  half-saturating flash intensity I0: 1995 equivalent 500 nm photons/μm^2
Rods from Rpe65−/− mice; Rpe65−/− mice treated with 2.5 mg of 9-cis-retinal
  half-saturating flash intensity I0: 164 equivalent 500 nm photons/μm^2
Rpe65−/− mice [2]; early treated mice, over several months
  filling of RPE vacuoles (lipid-like droplets): only partially filled
Rpe65−/− mice [2]; young animals or young adults treated
  interface contacts between the RPE and ROS: improved
Rpe65−/− mice [3]
  ERG activity (a- and b-wave) compared with Me2SO: significantly increased sensitivity
Rpe65−/− mice [4]; 0.25 mg
  axial density of iso-rhodopsin as share of rhodopsin in Rpe65+/+ rods: 16%
  free opsin as share of total available pigment: 72%
Rpe65−/− mice [4]; 1.25 mg
  axial density of iso-rhodopsin as share of rhodopsin in Rpe65+/+ rods: 21%
  free opsin as share of total available pigment: 63%
Rpe65−/− mice [4]; 2.5 mg
  amount of iso-rhodopsin: 300 pmol
  free opsin in rods: no free opsin
  iso-rhodopsin as share of rhodopsin in Rpe65+/+ rods: about 57%
  number of iso-rhodopsin molecules in rods: about 1.2×10^7
Rpe65−/− mice [4]; 2.5 mg dose gavage
  iso-rhodopsin formed: 300±25 pmol of iso-rhodopsin/eye
Rpe65−/− mice [4]; 2.5 mg, after 48 hour more than three intense flashes at 1-hour intervals
  iso-rhodopsin and 9-cis-retinyl esters after flashes: significantly depleted
Rpe65−/− mice [4]; 2.5 mg, five flashes at 24-hour intervals
  retinyl esters from liver and RPE after flashes: completely depleted
Rpe65−/− mice [4]; 0.25-mg dose every other day from PND 7 until 30 days old
  all-trans-retinyl ester accumulation: dramatic change in the ester accumulation
Rpe65−/− mice [4]; 0.25-mg dose gavage
  iso-rhodopsin formed: 85.6±6.2 pmol/eye
Rpe65−/− mice [4]; 1.25-mg dose gavage
  iso-rhodopsin formed: 109.8 pmol of iso-rhodopsin/eye
Rpe65−/− mice [4]; 6-month-old (FIG. 2B) compared with FIG. 2A
  decrease of iso-rhodopsin with age: 50%
Rpe65−/− mice [4]; 6 month-old Rpe65−/− mice treated twice, 2.5 mg/dose
  reduction of ester levels compared with untreated animals: > 50%
Rpe65−/− mice [4]; 6 month-old mice, 2.5 mg/dose twice at PND 30 and 34, 30 and 120, or 30 and 150
  iso-rhodopsin levels between dosing regimens: comparable
Rpe65−/− mice [4]; 48 hours after treatment
  pigment deficit of Rpe65−/− rods relative to Rpe65+/+: approximately 40%
Rpe65−/− mice [4]; Rpe65−/− mice in the dark
  time rod photopigment is produced and maintained: more than 6 months
Rpe65−/− mice [4]; continued administration of 1 dose (1.25 mg) per week after early treatment
  overall amounts of all-trans-retinyl esters: dramatically suppressed
Rpe65−/− mice [4]; intravenous injection, addition of cyclodextrin
  accumulation of 9-cis-retinyl esters in the liver or RPE: higher accumulation
Rpe65−/− mice [4]; intravenous injection, with and without cyclodextrins
  iso-rhodopsin production: produced iso-rhodopsin
Rpe65−/− mice [4]; single 2.5 mg dose at 1 month, 12-hour light/dark cycle or 24 hour dark for 37 days
  depletion of retinal (iso-rhodopsin level): No appreciable depletion of retinal
Rpe65−/− mice [4]; treatment began after more than 1 month of age
  removal of accumulated esters in the RPE: not removed
[5]; gavage
  presence of retinal in the bloodstream: greater than 48 hours
[5]; in the presence of cyclodextrins
  t1/2 in the circulation: 23 h
[5]; without cyclodextrins
  t1/2 in the circulation: 12 h
